Test results from article PMC5537305, “Photo-enhanced Aqueous Solubilization of an Azo-compound” (Scientific Reports, 2017).
Converted amounts (≈) assume the structure as drawn. Where two headings read alike, the source gives them in different places.

How the values were obtained:
[1] = Aqueous dissolution in the dark of UV-irradiated crystals of 3; format: physicochemical; conditions: for cis ratio contained in the solution, on average: dissolved in the dark; for cis ratio / solubility at 1 h: 37 °C, 1 h; for solubility at 1 h: phosphate buffer, thermodynamic from solid, read-out: Aqueous solubilized 3
Source text: At the photostationary state under UV irradiation, the equilibria shown in Fig. 3a should be in balance. Here, we are interested in the transient process, i.e., how cis-3 in solution increases when UV irradiation is started. There are two possible routes for generating cis-3 in solution from trans-3 in the solid state: route (i) and (ii). Route (i) is clearly possible, because the process trans solution → cis solution is easily driven by UV irradiation (Fig. S3a). The remaining question is whether cis isomerization of solid 3 is induced under UV irradiation, that is, whether route (ii) also operates. To answer this question, we investigated the aqueous dissolution in the dark of UV-irradiated crystals of 3. The UV-irradiated crystals were clearly more soluble than the unirradiated crystals (Fig. 3b and Table S7). In addition, the cis ratio of UV-irradiated crystals contained in the solution was higher than that of unirradiated crystals (14% vs 4% on average, Table S7). […] Therefore, we conclude that routes (i) and (ii) both operate upon UV irradiation.
Figure 3 (a) Possible equilibria and routes for generating cis-3 in solution. (b) Kinetics of aqueous dissolution of UV-irradiated crystals of 3, measured in the dark. Crystals of 3 were irradiated with 365 nm LED light (344 mW/cm^2) at 37 °C for 3 h. The UV-irradiated crystals and unirradiated crystals were each shaken with phosphate buffer in the dark at 37 °C for 1 h. Data are the mean ± SD of three individual experiments. The asterisk indicates a significant difference (*p < 0.05) from the unirradiated crystals according to the unpaired, two-sided Student’s t-test. […]
Table S7. Aqueous dissolution of UV-irradiated crystals of 3 measured in the dark, and the cis ratio contained […]
Unirradiated crystals UV-irradiated crystals entry Aqueous solubilized 3 cis ratio (%) Aqueous solubilized 3 cis ratio (%) […]
Crystals of 3 were irradiated with 365 nm LED light (344 mW/cm2) at 37 °C for 3 h. It should be noted that […]
The UV-irradiated crystals and unirradiated crystals were each shaken in phosphate buffer in the dark at 37 °C for 1 h.

[2] = Photoinduced cis-trans isomerization of 3 in water containing 1% MeOH (HPLC peak areas); format: physicochemical
Procedure: To confirm the potential usefulness of this strategy for improving aqueous solubility, we focused on kinase inhibitor 3 [31] (Fig. S2) as representative of pharmaceutical compounds, because the 518 human protein kinases include important drug targets, and the molecular structures of many kinase inhibitors tend to be rather similar. […]
Table S2. Photoinduced isomerization of 3
Light Time (min) cis ratio (%) trans ratio (%)
Compound 3 (10 µM) in a mixture of water and MeOH (1%) was successively exposed to white light and to a 365 nm mercury lamp (0.5 mW/cm2). The cis-trans ratio was calculated from the peak areas in HPLC. […]
Physicochemical properties
The UV-visible absorption spectra of the cis and trans isomers were determined on a UV-visible spectrometer (Shimano, UV-2400PC). Sample solutions in quartz cells were irradiated with a 365 nm mercury lamp (4 W, UVP compact UV lamp, 0.5 mW/cm2), LED UV light (3.3 W, CCS HLV-24UV365-4WNRBTNJ, 344 mW/cm2), or white LED light (5 W, Nikki Trading Corp., NLSS05BM, 68 and 54 mW/cm2 at 450 and 540 nm, respectively) for the indicated times at room temperature. […]

[3] = 10 µM in water/MeOH (1%), step 1: visible (white light) 10 min
[4] = step 2: UV 365 nm mercury lamp 0.5 mW/cm2, 10 min
[5] = step 4: UV 10 min (second UV exposure)

CC(C)n1nc(/N=N/c2ccccc2)c2c(N)ncnc21 [Compound 3]
cis ratio contained in the solution, on average ([1]; UV-irradiated crystals): 14% | cis ratio ([1]; UV-irradiated crystals, entry 1, dark): 21% | cis ratio ([1]; UV-irradiated crystals, entry 2, dark): 14% | cis ratio ([1]; UV-irradiated crystals, entry 3, dark): 7% | cis ratio ([1]; Unirradiated crystals, entry 1, dark): 5% | cis ratio ([1]; Unirradiated crystals, entry 2, dark): 3% | cis ratio ([1]; Unirradiated crystals, entry 3, dark): 4% | solubility at 1 h ([1]; aqueous buffer, Unirradiated crystals, entry 2, dark): 2.6 µg/mL (≈ 9.24 µM) | solubility at 1 h ([1]; pH 7.4, aqueous buffer, UV-irradiated crystals (365 nm LED 344 mW/cm2, 37 °C, 3 h), entry 1, dark): 3.7 µg/mL (≈ 13.2 µM) | solubility at 1 h ([1]; pH 7.4, aqueous buffer, UV-irradiated crystals, entry 2, dark): 3.4 µg/mL (≈ 12.1 µM) | solubility at 1 h ([1]; pH 7.4, aqueous buffer, UV-irradiated crystals, entry 3, dark): 3.2 µg/mL (≈ 11.4 µM) | solubility at 1 h ([1]; pH 7.4, aqueous buffer, Unirradiated crystals, entry 1, phosphate buffer, dark): 2.8 µg/mL (≈ 9.95 µM) | solubility at 1 h ([1]; pH 7.4, aqueous buffer, Unirradiated crystals, entry 3, dark): 3 µg/mL (≈ 10.7 µM) | cis ratio contained in the solution, on average ([1]; unirradiated crystals): 4% | cis ratio [2, 3]: 20.3% | trans ratio [2, 3]: 79.7% | cis ratio [2, 4]: 84.8% | trans ratio [2, 4]: 15.2% | cis ratio ([2]; step 3: visible 12 min): 18.3% | trans ratio ([2]; step 3: visible 12 min): 81.7% | cis ratio [2, 5]: 86.9% | trans ratio [2, 5]: 13.1% | cis ratio ([2]; step 5: visible 20 min): 19.4% | trans ratio ([2]; step 5: visible 20 min): 80.6%
